ChEMBL document CHEMBL1201862, “PubChem BioAssay data set” (2004)
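Method: 48-hour compound exposure of cells in 96-well plates, five concentrations, linear interpolation of endpoints. GI50 marks 50% less growth.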 Calls of active or inactive are those of the source. Rule as the data show it: active = GI50 up to about 1.1 µM and inactive = higher.

Experiments:
Assay in all cases: NCI tumour cell line growth inhibition, 48 h
A549 = test system: A549
ACHN = test system: ACHN
CAKI-1 = test system: CAKI-1
CCRF-CEM = test system: CCRF-CEM
COLO 205 = test system: COLO 205
DLD-1 = test system: DLD-1
DMS-114 = test system: DMS-114
DMS-273 = test system: DMS-273
EKVX = test system: EKVX
HCC 2998 = test system: HCC 2998
HCT-116 = test system: HCT-116
HCT-15 = test system: HCT-15
HL-60 = test system: HL-60
HOP-18 = test system: HOP-18
HOP-92 = test system: HOP-92
IGROV-1 = test system: IGROV-1
K562 = test system: K562
KM12 = test system: KM12
LOX IMVI = test system: LOX IMVI
LXFL 529 = test system: LXFL 529
M14 = test system: M14
M19-MEL = test system: M19-MEL
MOLT-4 = test system: MOLT-4
Malme-3M = test system: Malme-3M
NCI-H226 = test system: NCI-H226
NCI-H23 = test system: NCI-H23
NCI-H460 = test system: NCI-H460
OVCAR-4 = test system: OVCAR-4
OVCAR-5 = test system: OVCAR-5
OVCAR-8 = test system: OVCAR-8
RPMI-8226 = test system: RPMI-8226
RXF 393 = test system: RXF 393
RXF 631 = test system: RXF 631
SF-268 = test system: SF-268
SF-295 = test system: SF-295
SF-539 = test system: SF-539
SK-MEL-28 = test system: SK-MEL-28
SK-MEL-2 = test system: SK-MEL-2
SK-MEL-5 = test system: SK-MEL-5
SK-OV-3 = test system: SK-OV-3
SN12C = test system: SN12C
SNB-19 = test system: SNB-19
SNB-75 = test system: SNB-75
SNB-78 = test system: SNB-78
SR = test system: SR
SW-620 = test system: SW-620
TK-10 = test system: TK-10
U-251 = test system: U-251
UACC-257 = test system: UACC-257
UO-31 = test system: UO-31
XF498 = test system: XF498
786-0 = test system: 786-0
HT-29 = test system: HT-29
KM-20L2 = test system: KM-20L2
NCI-H522 = test system: NCI-H522
OVCAR-3 = test system: OVCAR-3
UACC-62 = test system: UACC-62
A498 = test system: A498

O=C=C=P(c1ccccc1)(c1ccccc1)c1ccccc1
GI50 (A549): 40.6 µM (inactive)
GI50 (ACHN): > 100 µM (inactive)
GI50 (CAKI-1): 59.4 µM (inactive)
GI50 (CCRF-CEM): 76 µM (inactive)
GI50 (COLO 205): 23.7 µM (inactive)
GI50 (DLD-1): > 100 µM (inactive)
GI50 (DMS-114): 22.8 µM (inactive)
GI50 (DMS-273): 36.9 µM (inactive)
GI50 (EKVX): 46.7 µM (inactive)
GI50 (HCC 2998): 61.5 µM (inactive)
GI50 (HCT-116): 34.4 µM (inactive)
GI50 (HCT-15): > 100 µM
GI50 (HL-60): 11.1 µM (inactive)
GI50 (HOP-18): 21.6 µM (inactive)
GI50 (HOP-92): 16.1 µM (inactive)
GI50 (IGROV-1): 41.9 µM (inactive)
GI50 (K562): 27 µM (inactive)
GI50 (KM12): 48.9 µM (inactive)
GI50 (LOX IMVI): 40.1 µM (inactive)
GI50 (LXFL 529): 35 µM (inactive)
GI50 (M14): 80.5 µM (inactive)
GI50 (M19-MEL): 27.1 µM (inactive)
GI50 (MOLT-4): 55.8 µM (inactive)
GI50 (Malme-3M): 30.6 µM (inactive)
GI50 (NCI-H226): 45.6 µM (inactive)
GI50 (NCI-H23): 31.3 µM (inactive)
GI50 (NCI-H460): 86.9 µM (inactive)
GI50 (OVCAR-4): 61.2 µM (inactive)
GI50 (OVCAR-5): 28.5 µM (inactive)
GI50 (OVCAR-8): 72.6 µM (inactive)
GI50 (RPMI-8226): 27.3 µM (inactive)
GI50 (RXF 393): 92.5 µM (inactive)
GI50 (RXF 631): 62.1 µM (inactive)
GI50 (SF-268): 69.2 µM (inactive)
GI50 (SF-295): > 100 µM (inactive)
GI50 (SF-539): > 100 µM (inactive)
GI50 (SK-MEL-28): > 100 µM (inactive)
GI50 (SK-MEL-2): 49.5 µM (inactive)
GI50 (SK-MEL-5): 21.5 µM (inactive)
GI50 (SK-OV-3): 48.3 µM (inactive)
GI50 (SN12C): > 100 µM (inactive)
GI50 (SNB-19): > 100 µM (inactive)
GI50 (SNB-75): 23.5 µM (inactive)
GI50 (SNB-78): 39.7 µM (inactive)
GI50 (SR): 86.7 µM (inactive)
GI50 (SW-620): > 100 µM (inactive)
GI50 (TK-10): 3.46 µM (inactive)
GI50 (U-251): 72.1 µM (inactive)
GI50 (UACC-257): 27.8 µM (inactive)
GI50 (UO-31): > 100 µM (inactive)
GI50 (XF498): 29 µM (inactive)

Cc1cc2c(=O)cc(-c3ccc(Cl)cc3)oc2c(C(=O)O)c1C
GI50 (786-0): > 100 µM (inactive)
GI50 (A549): > 100 µM (inactive)
GI50 (ACHN): > 100 µM (inactive)
GI50 (CAKI-1): > 100 µM (inactive)
GI50 (CCRF-CEM): > 100 µM (inactive)
GI50 (COLO 205): > 100 µM (inactive)
GI50 (DLD-1): > 100 µM (inactive)
GI50 (DMS-114): > 100 µM (inactive)
GI50 (DMS-273): > 100 µM (inactive)
GI50 (EKVX): > 100 µM (inactive)
GI50 (HCT-116): > 100 µM (inactive)
GI50 (HCT-15): > 100 µM
GI50 (HOP-18): > 100 µM (inactive)
GI50 (HT-29): > 100 µM (inactive)
GI50 (IGROV-1): > 100 µM (inactive)
GI50 (K562): > 100 µM (inactive)
GI50 (KM-20L2): > 100 µM (inactive)
GI50 (KM12): > 100 µM (inactive)
GI50 (LOX IMVI): > 100 µM (inactive)
GI50 (LXFL 529): > 100 µM (inactive)
GI50 (M14): > 100 µM (inactive)
GI50 (M19-MEL): > 100 µM (inactive)
GI50 (MOLT-4): > 100 µM (inactive)
GI50 (Malme-3M): > 100 µM (inactive)
GI50 (NCI-H226): > 100 µM (inactive)
GI50 (NCI-H23): > 100 µM (inactive)
GI50 (NCI-H460): > 100 µM (inactive)
GI50 (NCI-H522): 29.5 µM (inactive)
GI50 (OVCAR-3): > 100 µM (inactive)
GI50 (OVCAR-4): > 100 µM (inactive)
GI50 (OVCAR-5): > 100 µM (inactive)
GI50 (OVCAR-8): > 100 µM (inactive)
GI50 (RPMI-8226): > 100 µM (inactive)
GI50 (RXF 393): > 100 µM (inactive)
GI50 (RXF 631): > 100 µM (inactive)
GI50 (SF-268): > 100 µM (inactive)
GI50 (SF-295): > 100 µM (inactive)
GI50 (SF-539): > 100 µM (inactive)
GI50 (SK-MEL-28): > 100 µM (inactive)
GI50 (SK-MEL-2): > 100 µM (inactive)
GI50 (SK-MEL-5): > 100 µM (inactive)
GI50 (SK-OV-3): > 100 µM (inactive)
GI50 (SN12C): > 100 µM (inactive)
GI50 (SNB-19): > 100 µM (inactive)
GI50 (SNB-75): > 100 µM (inactive)
GI50 (SNB-78): > 100 µM (inactive)
GI50 (SW-620): > 100 µM (inactive)
GI50 (TK-10): > 100 µM (inactive)
GI50 (U-251): > 100 µM (inactive)
GI50 (UACC-257): > 100 µM (inactive)
GI50 (UACC-62): > 100 µM (inactive)
GI50 (UO-31): > 100 µM (inactive)
GI50 (XF498): > 100 µM (inactive)

O=C(O)C1=CCCc2ccc3ccccc3c21
GI50 (786-0): > 100 µM (inactive)
GI50 (A498): > 100 µM (inactive)
GI50 (A549): > 100 µM (inactive)
GI50 (ACHN): > 100 µM (inactive)
GI50 (CCRF-CEM): > 10 µM (inactive)
GI50 (COLO 205): > 100 µM (inactive)
GI50 (DMS-114): > 100 µM (inactive)
GI50 (DMS-273): > 100 µM (inactive)
GI50 (EKVX): > 100 µM (inactive)
GI50 (HCT-116): > 100 µM (inactive)
GI50 (HCT-15): > 100 µM
GI50 (HOP-18): 21.6 µM (inactive)
GI50 (HOP-92): > 100 µM (inactive)
GI50 (HT-29): > 100 µM (inactive)
GI50 (IGROV-1): > 100 µM (inactive)
GI50 (K562): > 100 µM (inactive)
GI50 (KM-20L2): > 100 µM (inactive)
GI50 (KM12): > 100 µM (inactive)
GI50 (LOX IMVI): > 100 µM (inactive)
GI50 (LXFL 529): > 100 µM (inactive)
GI50 (M14): > 100 µM (inactive)
GI50 (M19-MEL): > 100 µM (inactive)
GI50 (MOLT-4): > 100 µM (inactive)
GI50 (Malme-3M): > 100 µM (inactive)
GI50 (NCI-H226): > 100 µM (inactive)
GI50 (NCI-H23): > 100 µM (inactive)
GI50 (NCI-H460): > 100 µM (inactive)
GI50 (NCI-H522): > 100 µM (inactive)
GI50 (OVCAR-3): > 100 µM (inactive)
GI50 (OVCAR-4): > 100 µM (inactive)
GI50 (OVCAR-5): > 100 µM (inactive)
GI50 (OVCAR-8): > 100 µM (inactive)
GI50 (RPMI-8226): > 100 µM (inactive)
GI50 (RXF 393): > 100 µM (inactive)
GI50 (RXF 631): > 100 µM (inactive)
GI50 (SF-268): > 100 µM (inactive)
GI50 (SF-295): > 100 µM (inactive)
GI50 (SF-539): > 100 µM (inactive)
GI50 (SK-MEL-28): > 100 µM (inactive)
GI50 (SK-MEL-2): > 100 µM (inactive)
GI50 (SK-OV-3): > 100 µM (inactive)
GI50 (SN12C): > 100 µM (inactive)
GI50 (SNB-19): > 100 µM (inactive)
GI50 (SNB-75): 85.3 µM (inactive)
GI50 (SNB-78): > 100 µM (inactive)
GI50 (SW-620): > 100 µM (inactive)
GI50 (TK-10): > 100 µM (inactive)
GI50 (U-251): > 100 µM (inactive)
GI50 (UACC-257): > 100 µM (inactive)
GI50 (UACC-62): > 100 µM (inactive)
GI50 (UO-31): > 100 µM (inactive)
GI50 (XF498): > 100 µM (inactive)
